pIC50: −log10 of the molar value.
Tests used:
[1] = Cytotoxicity activity against human MCF7 cells assessed as growth inhibition measured after 48 hrs by MTT assay; type: functional, cell-based; settings: MCF7, 48 h
[2] = Cytotoxicity activity against human A549 cells assessed as growth inhibition measured after 48 hrs by MTT assay; type: functional, cell-based; settings: A549, 48 h

CC(=O)O[C@H]1C(=O)[C@@]2(C)[C@H]([C@H](OC(=O)c3ccccc3)[C@]3(O)C[C@H](OC(=O)[C@H](O)[C@@H](NC(=O)c4ccccc4)c4ccccc4)C(C)=C1C3(C)C)[C@]1(OC(C)=O)CO[C@@H]1C[C@@H]2O [PACLITAXEL]
pIC50 [1]: 7.22
pIC50 [2]: 7.52
